Measured values reported in US20230391792A1, “METHODS AND COMPOSITIONS FOR TARGETED PROTEIN DEGRADATION” (Ranok Therapeutics (Hangzhou) Co. Ltd., priority 2020, published 2023).

Biological target: T1, HSP90α protein (N-terminal) (Homo sapiens, UniProt P07900)
T1 construct: purchased BPS Bioscience #50298
Assay: HSP90α-binding fluorescent polarization (FP) assay, competition with BODIPY-labeled RNK04010
Details: probe RNK04010 (BODIPY-labeled) 5 nM, 25° C. 300 min
Protocol: (§1) Binding of test compounds to HSP90α protein was measured by fluorescent polarization (FP) using the HSP90α (N-terminal) Assay Kit (BPS Bioscience, #50298), following the manufacturer's instructions, except as noted. Fluorescently labeled HSP90-binding compounds, either the provided FITC-geldanamycin (5 nM final concentration) or RNK04010, a triazolone-based HSP90-binding small molecule labeled with BODIPY through a piperizine-phenyl linker (5 nM final concentration) were employed. A 2.5-fold serial dilution of each test compound ranging from 20 μM to 5.2 nM was assayed for binding to HSP90α. After the final step of adding HSP90α protein to each assay well, plates were mixed by brief shaking, incubated at 25° C. for 120 min for FITC-geldanamycin or 300 min for RNK04010, and fluorescence was measured using a PerkinElmer EnVision Plate Reader.
(§2) HSP90α-binding fluorescent polarization (FP) assays measuring competition with the fluorescently labeled HSP90 binders, FITC-geldanamycin or RNK04010 (BODIPY-labeled), were applied to assess the binding capabilities of CHAMP molecules to HSP90.

IC50 [nM] | Structure (SMILES)
100 to 1000 | Cc1sc2c(c1C)C(c1ccc(Cl)cc1)=NC(CC(=O)N1CCC(CN3CCN(Cc4ccc(-n5c(O)nnc5-c5cc(C(C)C)c(O)cc5O)cc4)CC3)CC1)c1nnc(C)n1-2 (centres unmarked) [Compound 1]
> 1000 | CC[C@@H](C)Nc1cc(C(=O)NC2CC3CCC(C2)N3c2ccc(C(=O)c3ccc(CN4CCN(CC5CCN(C(=O)C[C@@H]6N=C(c7ccc(Cl)cc7)c7c(sc(C)c7C)-n7c(C)nnc76)CC5)CC4)cc3)cn2)c(C)cc1C(N)=O (some centres unmarked) [Compound 165]

Biological target: T1, HSP90α protein (N-terminal)
Assay: HSP90α-binding fluorescent polarization (FP) assay, competition with FITC-geldanamycin
Details: probe FITC-geldanamycin 5 nM, 25° C. 120 min
Protocol: as §1, §2

Structure (SMILES) | IC50 [nM]
CCc1cc(-c2nnc(O)n2-c2ccc(CN3CCN(CC4CCN(C(=O)C[C@@H]5N=C(c6ccc(Cl)cc6)c6c(sc(C)c6C)-n6c(C)nnc65)CC4)CC3)c(F)c2)c(O)cc1O [Compound 53] | 100 to 1000
Cc1sc2c(c1C)C(c1ccc(Cl)cc1)=NC(CC(=O)N1CCC(CN3CCN(Cc4ccc(-n5c(O)nnc5-c5cc(C(C)C)c(O)cc5O)cc4)CC3)CC1)c1nnc(C)n1-2 (centres unmarked) [Compound 1] | 100 to 1000
Cc1sc2c(c1C)C(c1ccc(Cl)cc1)=N[C@@H](CC(=O)NCCOc1ccccc1CN(C)Cc1ccc(-n3c(O)nnc3-c3cc(C(C)C)c(O)cc3O)cc1)c1nnc(C)n1-2 [Compound 14] | 100 to 1000
CCn1c(=O)/c(=C2\Sc3ccccc3N2C)s/c1=C\c1cccc[n+]1CCCCCCNC(=O)C[C@@H]1N=C(c2ccc(Cl)cc2)c2c(sc(C)c2C)-n2c(C)nnc21 [Compound 163] | > 1000
Cc1sc2c(c1C)C(c1ccc(Cl)cc1)=N[C@@H](CC(=O)NCCOCCN1CCC(Cc3ccc(-n4c(O)nnc4-c4cc(C(C)C)c(O)cc4O)cc3)CC1)c1nnc(C)n1-2 [Compound 9] | 100 to 1000
Cc1sc2c(c1C)C(c1ccc(Cl)cc1)=N[C@@H](CCNCc1ccc(-n3c(O)nnc3-c3cc(C(C)C)c(O)cc3O)cc1)c1nnc(C)n1-2 [Compound 31] | 100 to 1000
CCOc1cc(N2CCC(C(=O)NCCOCCOCCOc3ccc(Nc4cc(-n5nc(C(F)(F)F)c6c5CC(C)(C)CC6=O)ccc4C(N)=O)cc3)CC2)ccc1Nc1ncc2c(n1)N(C)c1ccccc1C(=O)N2C [Compound 161] | > 1000
Cc1sc2c(c1C)C(c1ccc(Cl)cc1)=N[C@@H](CC(=O)NCCOc1ccc(CN(C)Cc3ccc(-n4c(O)nnc4-c4cc(C(C)C)c(O)cc4O)cc3)cc1)c1nnc(C)n1-2 [Compound 21] | 100 to 1000
CCc1cc(-c2nnc(O)n2-c2ccc(CN3CCN(CC4CCN(C(=O)C[C@@H]5N=C(c6ccc(Cl)cc6)c6c(sc(C)c6C)-n6c(C)nnc65)CC4)CC3)cc2)c(O)cc1O [Compound 41] | < 100
CCOc1cc(N2CCC(C(=O)NCOCCN3CCC(Cc4ccc(-n5c(O)nnc5-c5cc(C(C)C)c(O)cc5O)cc4)CC3)CC2)ccc1Nc1ncc2c(n1)N(C)c1ccccc1C(=O)N2C [Compound 111] | 100 to 1000

Next, values leading:

IC50 [nM] | Structure (SMILES)
> 1000 | CC[C@@H](C)Nc1cc(C(=O)NC2CC3CCC(C2)N3c2ccc(C(=O)c3ccc(CN4CCN(CC5CCN(C(=O)C[C@@H]6N=C(c7ccc(Cl)cc7)c7c(sc(C)c7C)-n7c(C)nnc76)CC5)CC4)cc3)cn2)c(C)cc1C(N)=O (some centres unmarked) [Compound 165]
100 to 1000 | CCOc1cc(N2CCC(C(=O)NCCOCCOc3ccc(-n4c(O)nnc4-c4cc(CC)c(O)cc4O)cc3)CC2)ccc1Nc1ncc2c(n1)N(C)c1ccccc1C(=O)N2C [Compound 112]
> 1000 | CC[C@@H](C)Nc1cc(C(=O)NC2CC3CCC(C2)N3c2ccc(C(=O)Nc3ccc(CN4CCN(CC5CCN(C(=O)C[C@@H]6N=C(c7ccc(Cl)cc7)c7c(sc(C)c7C)-n7c(C)nnc76)CC5)CC4)cc3)cn2)ccc1C(N)=O (some centres unmarked) [Compound 166]
100 to 1000 | Cc1sc2c(c1C)C(c1ccc(Cl)cc1)=N[C@@H](CC(=O)NCC(=O)NCCOc1ccc(-n3c(O)nnc3-c3cc(C(C)C)c(O)cc3O)cc1)c1nnc(C)n1-2 [Compound 24]
100 to 1000 | Cc1sc2c(c1C)C(c1ccc(Cl)cc1)=N[C@@H](CC(=O)N[C@@H](C)c1ccc(CN3CCC(Cc4ccc(-n5c(O)nnc5-c5cc(C(C)C)c(O)cc5O)cc4)CC3)cc1)c1nnc(C)n1-2 [Compound 44]
